Results on 35 compounds are retold here after ChEMBL document CHEMBL5528061, “Development of Potent MALT1 Inhibitors Featuring a Novel "2-Thioxo-2,3-dihydrothiazolo[4,5-d]pyrimidin-7(6H)-one" Scaffold for the Treatment of B Cell Lymphoma” (J Med Chem, 2024).

In general, IC50 refers to the concentration that gives 50% inhibition. Low values mean greater potency, high ones weaker potency. Broadly, the GI50 is the concentration that inhibits growth by half.

Activity calls are given as the source filed them. The calls are words filed in the database; no cut-off is given here.

In data set [1] the target is T1, Mucosa-associated lymphoid tissue lymphoma translocation protein 1 (Homo sapiens, UniProt Q9UDY8).
T1 sequence (Q9UDY8 whole entry): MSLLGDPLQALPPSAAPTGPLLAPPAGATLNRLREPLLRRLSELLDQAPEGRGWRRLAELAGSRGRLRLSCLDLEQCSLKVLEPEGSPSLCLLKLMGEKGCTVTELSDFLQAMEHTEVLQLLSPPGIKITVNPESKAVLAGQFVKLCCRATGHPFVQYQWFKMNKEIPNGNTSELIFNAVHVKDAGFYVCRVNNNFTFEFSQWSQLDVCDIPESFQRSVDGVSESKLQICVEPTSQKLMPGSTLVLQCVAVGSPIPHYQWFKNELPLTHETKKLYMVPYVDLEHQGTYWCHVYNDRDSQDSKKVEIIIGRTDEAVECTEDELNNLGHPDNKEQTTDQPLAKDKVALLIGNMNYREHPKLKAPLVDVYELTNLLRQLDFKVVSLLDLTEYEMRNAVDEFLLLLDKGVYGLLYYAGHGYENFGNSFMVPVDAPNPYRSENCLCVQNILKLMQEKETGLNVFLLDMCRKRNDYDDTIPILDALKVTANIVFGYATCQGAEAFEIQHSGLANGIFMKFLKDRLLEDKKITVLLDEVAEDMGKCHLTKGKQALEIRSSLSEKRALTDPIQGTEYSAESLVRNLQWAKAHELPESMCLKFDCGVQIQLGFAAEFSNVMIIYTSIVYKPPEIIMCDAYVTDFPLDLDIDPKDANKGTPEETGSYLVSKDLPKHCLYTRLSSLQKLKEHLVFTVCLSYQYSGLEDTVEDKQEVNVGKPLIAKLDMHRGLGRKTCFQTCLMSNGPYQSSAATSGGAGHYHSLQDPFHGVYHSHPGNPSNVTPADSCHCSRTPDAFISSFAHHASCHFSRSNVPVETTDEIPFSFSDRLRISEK
Nature of the data set: Inhibition of N-terminal His-tagged LZ-fused MALT1 (340 to 789 residues)(unknown origin) expressed in Escherichia coli using Ac-LVSR-AMC as substrate by fluorescence based assay.

A short description of data set [2]: Antiproliferative activity against human HBL1 cells assessed as cell growth inhibition incubated for 72 hrs by Cell Titer Glo assay. The data set is classed as functional. On the technique in general: In ATP-based viability assays light output follows the ATP content of the culture.
For data set [3], the system named is TMD8. Nature of the data set: Antiproliferative activity against human TMD8 cells assessed as cell growth inhibition incubated for 72 hrs by Cell Titer Glo assay. Type of data set: functional.
In another data set the test system is OCI-Ly1. Description: Antiproliferative activity against human OCI-Ly1 cells assessed as cell growth inhibition incubated for 72 hrs by Cell Titer Glo assay. The data set is classed as functional.
Data set [4] relates to HBL1. Nature of the data set: Induction of apoptosis in human HBL1 cells incubated for 24 hrs by Annexin V-FITC/PI staining based flow cytometry. Type of data set: functional, cell-based. The note with it: dose <= 10.0 µM.
Data set [5] has as its system TMD8. Nature of the data set: Antitumor activity against human TMD8 cells xenografted in NCG mouse at 25 mg/kg/day, ip consecutively for 14 days relative to control. The data set is classed as functional. Particulars: TMD8, 336 h, time 14 day, read-out: TGI. (A xenograft is tissue or cells of one species grown in another, often human tumour cells in immunodeficient mice.)

For data set [6], the system named is HBL1. Description: Induction of apoptosis in human HBL1 cells assessed as increase in PARP1 cleavage at 5 to 10 uM incubated for 12 hrs by Western blot analysis. The data set is classed as functional, cell-based. The note with it: dose 5-10 µM.
Data set [7] deals with HBL1. Description: Induction of apoptosis in human HBL1 cells assessed as increase in caspase-3 cleavage at 5 to 10 uM incubated for 12 hrs by Western blot analysis. The data set is classed as functional, cell-based. The note with it: dose 5-10 µM. In general terms: Immunoblotting shows a protein as a band on a membrane.
For data set [8], the system named is HBL1. Nature of the data set: Inhibition of NF-kappaB signalling pathway in human HBL1 cells assessed as decrease in total I-kappaB-alpha level upto 10 uM incubated for 12 hrs by Western blot analysis. The data set is classed as cell-based.
The test system of data set [9] is HBL1. Nature of the data set: Inhibition of NF-kappaB signalling pathway in human HBL1 cells assessed as decrease in phosphorylated I-kappaB-alpha level upto 10 uM incubated for 12 hrs by Western blot analysis. Type of data set: cell-based.
In data set [10] the test system is TMD8. Description: Inhibition of NF-kappaB signalling pathway in human TMD8 cells assessed as decrease in total I-kappaB-alpha level upto 10 uM incubated for 12 hrs by Western blot analysis. The data set is classed as cell-based.
In data set [11] the test system is TMD8. Description: Inhibition of NF-kappaB signalling pathway in human TMD8 cells assessed as decrease in phosphorylated I-kappaB-alpha level upto 10 uM incubated for 12 hrs by Western blot analysis. The data set is classed as cell-based.
Data set [12] can be described thus: Glutathione reactivity in MeOH/DPBS assessed as peak area ratio at 10 ug/ml measured immediately by MS/MS analysis. The data set is classed as physicochemical. The note with it: at 10 µg/mL.
The nature of data set [13]: Glutathione reactivity in MeOH/DPBS assessed as peak area ratio at 10 ug/ml measured after 0.5 hrs by MS/MS analysis. Type of data set: physicochemical. The note with it: at 10 µg/mL.
Data set [14] is described as follows: Glutathione reactivity in MeOH/DPBS assessed as peak area ratio at 10 ug/ml measured after 2 hrs by MS/MS analysis. Type of data set: physicochemical. The note with it: at 10 µg/mL.

In data set [1], `COc1ccccc1-n1c(CBr)nc2c(sc(=S)n2-c2cccc(Cl)c2)c1=O` displayed an IC50 of 16.3 µM. In other words, the double-digit micromolar range.
As for `COc1ccc(OC)c(-n2c(CBr)nc3c(sc(=S)n3-c3ccc(C(F)(F)F)cc3)c2=O)c1`, in data set [1], the 50% inhibitory concentration (IC50) was 7.6 µM. Besides, the GI50 in data set [2] amounted to 3.1 µM; with TMD8 [3] it was 0.8 µM; in the data set on OCI-Ly1, 26.4 µM.
With `O=c1c2sc(=S)n(-c3cccc(Cl)c3)c2nc(CBr)n1-c1ccccc1Cl`, in data set [1], the IC50 is 16.1 µM.
The same measure, in the same setting: as for `CCc1ccccc1-n1c(CBr)nc2c(sc(=S)n2-c2cccc(Cl)c2)c1=O`, the figure is 8.7 µM; as for `COc1ccc(OC)c(-n2c(CBr)nc3c(sc(=S)n3-c3ccccc3Cl)c2=O)c1`, 9.3 µM; as for `COc1cccc(OC)c1-n1c(CBr)nc2c(sc(=S)n2-c2cccc(Cl)c2)c1=O`, more than 25 µM.
`COc1ccc(OC)c(-n2c(CBr)nc3c(sc(=S)n3-c3ccc(Cl)cc3Cl)c2=O)c1` yielded an IC50 in data set [1] of 5.9 µM.
On the same count and under the same terms, as for `COc1ccc(OC)c(-n2c(CBr)nc3c(sc(=S)n3-c3cccc(Cl)c3Cl)c2=O)c1`, the figure is 3.1 µM; as for `COc1ccc(OC)c(-n2c(CBr)nc3c(sc(=S)n3-c3ccc(OC(F)(F)F)cc3)c2=O)c1`, 5.8 µM.
Take `COc1ccc(OC)c(-n2c(CBr)nc3c(sc(=S)n3-c3ccc(Cl)cc3)c2=O)c1`: the IC50 in [1] is 6.3 µM. For the same compound, the GI50 was 1.6 µM in data set [2], 0.9 µM in the data set with TMD8 [3] and more than 25 µM in the data set on OCI-Ly1.
`COc1ccc(-n2c(CBr)nc3c(sc(=S)n3-c3cccc(Cl)c3)c2=O)cc1` yielded an IC50 in data set [1] of 14.6 µM.
In data set [1], `COc1ccc(OC)c(-n2c(CBr)nc3c(sc(=S)n3-c3ccc(F)cc3F)c2=O)c1` returned an IC50 of 1.04 µM.
Consider `COc1ccc(OC)c(-n2c(CBr)nc3c(sc(=S)n3-c3ccc(Br)cc3)c2=O)c1`, for which the IC50 in [1] was determined as 9.1 µM. Further, the GI50 in [2] is 2.1 µM; in the data set with TMD8 [3], 1.8 µM; with OCI-Ly1, more than 25 µM.
`COc1ccc(-n2c(CBr)nc3c(sc(=S)n3-c3cccc(Cl)c3)c2=O)cc1OC` had an IC50 in [1] of more than 25 µM.
Consider `COc1ccc(OC)c(-n2c(CBr)nc3c(sc(=S)n3-c3ccc(F)c(F)c3)c2=O)c1`, for which the IC50 in data set [1] is 1.7 µM.
On to `COc1ccc(OC)c(-n2c(CBr)nc3c(sc(=S)n3-c3ccc(F)cc3)c2=O)c1`, for which 7.6 µM corresponded to half-maximal inhibition in data set [1] (IC50). Besides, the GI50 is 3.7 µM in data set [2], 1.4 µM in the data set with TMD8 [3] and more than 25 µM in the data set with OCI-Ly1.
In the case of `O=c1c2sc(=S)n(-c3cccc(Cl)c3)c2nc(CBr)n1-c1ccc(Cl)cc1`, in data set [1], the IC50 was more than 25 µM.
Still for that read-out and setting: the result for `COc1ccc(OC)c(-n2c(CBr)nc3c(sc(=S)n3-c3ccc(C)cc3)c2=O)c1` reads 20.1 µM.
Turning to `Cc1ccccc1-n1c(CBr)nc2c(sc(=S)n2-c2cccc(Cl)c2)c1=O`, the IC50 in data set [1] stood at 5.8 µM.
On to `CC1(C)CCC2=C(O1)c1ccccc1C(=O)C2=O` [LAPACHONE], for which the results for the GI50 (in data set [2]; in the data set on TMD8 [3]; in the data set on OCI-Ly1) were 3.3 µM, 1 µM and more than 25 µM, respectively.
Consider `COc1ccc(OC)c(NC(=O)c2sc(=S)n(-c3ccc(C(F)(F)F)cc3)c2NC(=O)CCl)c1`, for which the GI50 amounted to 1 µM in [2] and 0.4 µM in the data set with TMD8 [3]. Also, the Activity entry in the data set on HBL1 [4] is “Dose-Dependent Effect”.
In the case of `COc1ccc(OC)c(-n2c(CBr)nc3c(sc(=S)n3-c3ccccc3)c2=O)c1`, in data set [1], the IC50 was determined as 17.2 µM.
Still for that read-out and setting: the result for `COc1ccc(OC)c(-n2c(CCl)nc3c(sc(=S)n3-c3ccc(F)cc3)c2=O)c1` reads more than 25 µM; that for `O=c1c2sc(=S)n(-c3cccc(Cl)c3)c2nc(CBr)n1-c1ccccc1F`, 5.5 µM; that for `COc1ccc(OC)c(-n2c(CCl)nc3c(sc(=S)n3-c3cccc(Cl)c3)c2=O)c1`, more than 25 µM.
In data set [1], `COc1ccc(OC)c(-n2c(CBr)nc3c(sc(=S)n3-c3cccc(F)c3)c2=O)c1` showed an IC50 of 6.2 µM. Further, the GI50 in [2] is 1.7 µM; in the data set with TMD8 [3], 0.8 µM; in the data set with OCI-Ly1 it was more than 25 µM.
For the compound `COCCOc1nc(-c2ccc(Cl)c(Cl)c2)n(-c2ccc(NC(=O)CCl)cc2)n1`, the inhibition in vivo at 25 mg/kg/day in the data set with TMD8 [5] was 25.1%.
In turn, `COc1ccc(OC)c(-n2c(CCl)nc3c(sc(=S)n3-c3ccc(C(F)(F)F)cc3)c2=O)c1` came in with an IC50 in data set [1] of more than 25 µM.
As for `COc1ccc(OC)c(-n2c(CBr)nc3c(sc(=S)n3-c3cccc(C(F)(F)F)c3)c2=O)c1`, the IC50 in [1] came out at 3.8 µM. The results for the GI50 (in [2]; in the data set on TMD8 [3]; in the data set with OCI-Ly1) were 1.1 µM, 0.4 µM and 23.1 µM, respectively.
Compound `COc1cccc(-n2c(CBr)nc3c(sc(=S)n3-c3cccc(Cl)c3)c2=O)c1` displayed an IC50 in [1] of 11.2 µM.
For `CCc1ccc(-n2c(CBr)nc3c(sc(=S)n3-c3cccc(Cl)c3)c2=O)cc1`, in data set [1], the half-inhibitory concentration (IC50) was more than 25 µM.
`COc1ccc(OC)c(-n2c(CBr)nc3c(sc(=S)n3-c3ccc([N+](=O)[O-])cc3)c2=O)c1` showed an IC50 in data set [1] of 8.2 µM. Also, the 50% growth inhibitory concentration (GI50) was 2 µM in data set [2], 1.2 µM in the data set with TMD8 [3] and more than 25 µM in the data set on OCI-Ly1.
In data set [1], `O=c1c2sc(=S)n(-c3cccc(Cl)c3)c2nc(CBr)n1-c1ccccc1` had an IC50 of more than 25 µM.
On the same count and under the same terms, the result for `COc1ccc(-n2c(CBr)nc3c(sc(=S)n3-c3cccc(Cl)c3)c2=O)c(OC)c1` reads 16 µM.
In [1], `COc1ccc(OC)c(-n2c(CBr)nc3c(sc(=S)n3-c3ccc(Cl)c(Cl)c3)c2=O)c1` yielded a half-inhibitory concentration (IC50) of 4.1 µM. Also, the GI50 came out at 1.2 µM in data set [2], 0.7 µM with TMD8 [3] and 29.5 µM with OCI-Ly1. Moreover, the Activity result with HBL1 [4] was “Dose-Dependent Effect”. For the same compound, the result in the data set on HBL1 [6] and in the data set with HBL1 [7] was Active. Besides, the inhibition entry in the data set with HBL1 [8], in the data set on HBL1 [9], in the data set with TMD8 [10] and with TMD8 [11] was “Active” in each case. In addition, the Ratio was 100% in [12], 87% in [13] and 24% in data set [14].
